In patent US7795241B2, “Derivative prodrugs of ethinyl estradiol” (Warner Chilcott Company, LLC, priority 2005, dated 2010):

Legend:
[1] = Stability at 40° C./75% RH, prodrug assayed for degradation to ethinyl estradiol (HPLC); format: physicochemical; settings: prodrug remaining; for Assay T = 2 W: 2 weeks; for Assay T = 0: T = 0 months; for Assay T = 1 M: 1 month; for Assay T = 6 M: 6 months
Description: Solubility was performed in water. […] The time-points for stability were T=0 months, T=2 weeks, T=1 month, T=3 months and T=6 months.
The following outlines the conditions utilized for analysis of this prodrug. Analysis was conducted using High-Performance Liquid Chromatography (HPLC).
The following outlines the conditions utilized for analysis of this prodrug. Analysis was conducted using HPLC.
The following outlines the conditions utilized for analysis of the prodrug. Analysis was conducted using HPLC.

[2] = Hydrolysis to the parent drug ethinyl estradiol (0.5N NaOH, HPLC quantification); format: physicochemical; settings: 5 min, prodrug solution + water + 0.5N NaOH
Description: Hydrolysis studies refer to the rate of hydrolysis to the parent drug, ethinyl estradiol. Hydrolysis was conducted in the following manner: • (1) 1 mL of a solution containing the prodrug, 2.8 mL of water and 0.1 mL of 0.5N NaOH were combined; • (2) the resulting solution was vortexed for 10 seconds; • (3) the mixture was then left to stand for specific time intervals (e.g., 5 minutes, 15 minutes, etc.); • (4) the mixture was then neutralized with 0.1 mL of a buffer; and • (5) the solutions were finally injected to quantify the disappearance of the prodrug and the formation of the parent compound.

[3] = listed as ethinyl estradiol acetoxy acetate
[4] = listed as ethinyl estradiol lactate acetate

Row | Assay T = 0 [1] [%] | Hydrolysis (to ethinyl estradiol) [2, 4] [%] | Assay T = 3 M ([1]; 3 months) [%] | Assay T = 6 M [1] [%] | Assay T = 6 M [1, 4] [%] | Compound | Assay T = 2 W [1] [%] | Hydrolysis (to ethinyl estradiol) [2] | Hydrolysis (to ethinyl estradiol) [2, 3] [%] | Assay T = 1 M [1] [%] | Assay T = 1 M [1, 3] [%]
1 | 97.2 |  |  |  |  | C#CC1(O)CC[C@H]2[C@@H]3CCc4cc(OC(=O)[C@@H]5CCCN5C(C)=O)ccc4[C@H]3CC[C@@]21C (stereo partly drawn) [Ethinyl Estradiol N-Acetyl Prolinate, ethinyl estradiol N-acetyl proline] | 96.6 |  |  |  | 
2 | 94.43 | 100 | 95.91 | 95.89 | 95.9 | ethinyl estradiol lactate-acetate |  | 100% (5 min) |  | 93.67 | 

Row | Compound | Assay T = 0 [1] [%] | Hydrolysis (to ethinyl estradiol) [2, 4] [%] | Assay T = 3 M ([1]; 3 months) [%] | Assay T = 6 M [1] [%] | Assay T = 6 M [1, 4] [%] | Assay T = 2 W [1] [%] | Hydrolysis (to ethinyl estradiol) [2] | Hydrolysis (to ethinyl estradiol) [2, 3] [%] | Assay T = 1 M [1] [%] | Assay T = 1 M [1, 3] [%]
3 | ethinyl estradiol acetoxy acetate | 97.8 |  |  |  |  | 97.2 | 100% (5 min) | 100 | 97.0 | 97
